pIC50: −log10 of the molar value.

One test deals with cells.
Assay: not given
The following applies: Rosenzweig et al. 1999; cited from earlier work.
Consider `O=c1cc(N2CCOCC2)oc2c(-c3ccccc3)cccc12` [LY294002], for which the “sensitisation of cells to the effects of IR” value was “weakly sensitise cells to the effects of IR”.

For another test, the target named is Mammalian DNA-PK (Homo sapiens, UniProt P78527). Briefly: DNA-PK inhibition assay (ELISA of p53 Ser15 phosphorylation of GST-p53N66).
Settings: not given
Format: biochemical, Mammalian (isolated from HeLa cell nuclear extract). On the procedure: In order to assess the inhibitory action of the compounds against DNA-PK in vitro, the following assay was used to determine IC50 values.
To the assay mix, varying concentrations of inhibitor (in DMSO at a final concentration of 1%) were added. After 10 minutes of incubation, ATP was added to give a final concentration of […] along with a 30 mer double stranded DNA oligonucleotide (final concentraion of 0.5 ng/ml) to initiate the reaction. After 1 hour with shaking, 150 μl of phosphate buffered saline (PBS) was added to the reaction and 5 μl then transferred to a 96 well opaque white plate containing 45 μl of PBS per well where the GSTp53N66 substrate was allowed to bind to the wells for 1 hour. To detect the phosphorylation event on the serine 15 residue of p53 elicited by DNA-PK a p53 phosphoserine-15 antibody (Cell Signaling Technology) was used in a basic ELISA procedure. An anti-rabbit HRP conjugated secondary antibody (Pierce) was then employed in the ELISA before the addition of chemiluminescence reagent. (NEN Renaissance) to detect the signal as measured by chemiluminescent counting via a TopCount NXT (Packard).
The enzyme activity for each compound is then calculated using the following equation: […]
The results are discussed below as IC50 values (the concentration at which 50% of the enzyme activity is inhibited). These are determined over a range of different concentrations, normally from 10 μM down to 0.001 μM. Such IC50 values are used as comparative values to identify increased compound potencies.
Usually pIC50 stands for the negative decadic logarithm of the IC50, by convention in mol/L. For the compound `O=c1cc(N2CCOCC2)oc2c(-c3cccc4c3sc3ccccc34)cccc12` [reference compound], the pIC50 is 7.92 to 8.00.

The same test, now with this note: DNA-PK from HeLa nuclear extract; mean value; read-out: mean IC50.
Regarding `O=c1cc(N2CCOCC2)oc2c(-c3ccc(CNn4cnnc4)c4c3sc3ccccc34)cccc12` [4cp], the pIC50 was 7.02.
Still for that read-out and setting: with `NC1CCCN(Cc2ccc(-c3cccc4c(=O)cc(N5CCOCC5)oc34)c3sc4ccccc4c23)C1` (stereo not drawn) [4cq] the figure was 7.44; with `O=c1cc(N2CCOCC2)oc2c(-c3ccc(CN4CCCNCC4)c4c3sc3ccccc34)cccc12` [4cr], 8.18; with `O=c1cc(N2CCOCC2)oc2c(-c3ccc(CN4CCCCC4)c4c3sc3ccccc34)cccc12` [4cs], 6.05.
For `O=c1cc(N2CCOCC2)oc2c(-c3ccc(CNCCc4ccccc4)c4c3sc3ccccc34)cccc12` [4ct], the pIC50 was 6.28.
As for `CN(C)CCNCc1ccc(-c2cccc3c(=O)cc(N4CCOCC4)oc23)c2sc3ccccc3c12` [4d], the pIC50 is 7.90.
Turning to `C=CCNCc1ccc(-c2cccc3c(=O)cc(N4CCOCC4)oc23)c2sc3ccccc3c12` [4i], the pIC50 was 6.05.
On the same count and under the same terms, next, `O=c1cc(N2CCOCC2)oc2c(-c3ccc(CN4CCC(O)CC4)c4c3sc3ccccc34)cccc12` [4j]: 6.29; `O=c1cc(N2CCOCC2)oc2c(-c3ccc(CN4CCNCC4)c4c3sc3ccccc34)cccc12` [4k]: 8.15.
Same read-out and setting: with `O=c1cc(N2CCOCC2)oc2c(-c3ccc(CN4CCC(O)C4)c4c3sc3ccccc34)cccc12` (stereo not drawn) [4l] the figure was 7.52; with `CN(C)Cc1ccc(-c2cccc3c(=O)cc(N4CCOCC4)oc23)c2sc3ccccc3c12` [4m], 6.53.
Same read-out and setting: with `COc1cccc(N2CCN(Cc3ccc(-c4cccc5c(=O)cc(N6CCOCC6)oc45)c4sc5ccccc5c34)CC2)c1` [4n] the figure was 6.01; with `COc1ccc(N2CCN(Cc3ccc(-c4cccc5c(=O)cc(N6CCOCC6)oc45)c4sc5ccccc5c34)CC2C)cc1` (stereo not drawn) [4o], 6.30; with `O=c1cc(N2CCOCC2)oc2c(-c3ccc(CN4CCC(CO)CC4)c4c3sc3ccccc34)cccc12` [4p], 7.02.
As for `C[C@@H]1CN(Cc2ccc(-c3cccc4c(=O)cc(N5CCOCC5)oc34)c3sc4ccccc4c23)C[C@H](C)O1` [4q], the pIC50 was 7.08.
The same measure, in the same setting: next, `O=c1cc(N2CCOCC2)oc2c(-c3ccc(CN4CCCC(CO)C4)c4c3sc3ccccc34)cccc12` (stereo not drawn) [4r]: 6.91; `CN(Cc1ccccc1)Cc1ccc(-c2cccc3c(=O)cc(N4CCOCC4)oc23)c2sc3ccccc3c12` [4s]: 6.03; `COCCN1CCN(Cc2ccc(-c3cccc4c(=O)cc(N5CCOCC5)oc34)c3sc4ccccc4c23)CC1` [4t]: 8.10.
Still for that read-out and setting: next, `CN(C)CCN(C)Cc1ccc(-c2cccc3c(=O)cc(N4CCOCC4)oc23)c2sc3ccccc3c12` [4u]: 7.56.
Same read-out and setting: with `CN1CCN(Cc2ccc(-c3cccc4c(=O)cc(N5CCOCC5)oc34)c3sc4ccccc4c23)CC1` [4v] the figure was 8.88; with `O=c1cc(N2CCOCC2)oc2c(-c3ccc(CN4CCCCCC4)c4c3sc3ccccc34)cccc12` [4x], 5.72.
Take `CCN(CC)Cc1ccc(-c2cccc3c(=O)cc(N4CCOCC4)oc23)c2sc3ccccc3c12` [4y]: the pIC50 was 5.71.
The same measure, in the same setting: next, `CC(=O)N1CCN(Cc2ccc(-c3cccc4c(=O)cc(N5CCOCC5)oc34)c3sc4ccccc4c23)CC1` [4z]: 7.11.

For another test, the target named is PI 3-kinase.
Assay: not given
The conditions noted are these: stated as the same as for DNA-PK; cited from earlier work.
Turning to `O=c1cc(N2CCOCC2)oc2c(-c3ccccc3)cccc12` [LY294002], the pIC50 is roughly 6.00.

The subject of another test is HeLa cells. Briefly: Survival Enhancement Ratio (clonogenic survival after 2 Gray irradiation). Format: cell-based, human. The conditions noted are these: example compound of WO 03/024949; concentration not given. How it is done: The Survival Enhancement Ratio (SER) is a ratio of the enhancement of cell kill elicited by the DNA-PK inhibitor after 2 Grays of irradiation compared to […]. DNA-PK inhibitors were used at a concentration of 25, 50, 100 and/or 500 nM. Radiation was delivered by a Faxitron 43855D machine at a dose rate of 1 Gy pre minute The SER at 2 Gray irradiation was calculated from the formula:
The degree of cell killing was monitored by a standard clonogenic survival assay. Briefly, tissue culture treated 6-well plates were seeded with HeLa cells at an appropriate concentration to give 100-200 colonies per well and returned to the incubator in order to allow the cells to attach. Four hours later, compound or vehicle control was added to the cells. The cells were then incubated for 1 hour in the presence of inhibitor prior to irradiation at 2 Gray using a Faxitron 43855D cabinet X-ray machine. The cells were then incubated for a further 16 hours before the media was replaced with fresh media in the absence of DNA-PK inhibitor. After 8 days, colonies formed were fixed and stained with Giemsa (Sigma, Poole, UK) and scored using an automated colony counter (Oxford Optronics Ltd, Oxford, UK). The data was calculated as described above.
For the compound `O=c1cc(N2CCOCC2)oc2c(-c3cccc4c3sc3ccccc34)cccc12` [reference compound], the SER is 1.3.

The record behind these values is US20110130386A1, “DNA-PK INHIBITORS” (priority 2008, published 2011).
